According to patent US20250042853A1, “BICYCLIC COMPOUND AND APPLICATION THEREOF” (BETTA PHARMACEUTICALS CO., LTD, priority 2021, published 2025):

What was measured:
VEGFA = VEGFA ELISA assay (IC50); format: cell-based; details: Homo sapiens, 786-0; 786-O cells, 24 h, VEGFA in culture supernatant by ELISA
Protocol: 786-O cells in the logarithmic growth phase were inoculated into a 96-well plate at a cell concentration of 65,000 cells per ml of culture liquid, 180 μL per well. The compounds were diluted to the corresponding concentrations, and 20 μL of compound solutions of various concentrations were added to the corresponding cell wells, so that the final concentrations of the compounds were 1.5 nM, 4.6 nM, 13.7 nM, 41.2 nM, 123.5 nM, 370.4 nM, 1111.1 nM, 3333.3 nM, and 10000 nM, respectively. After culturing for 24 h, the cell culture supernatant was collected and the VEGFA concentration was determined using an ELISA kit (purchased from Abeam). Finally, the reaction was terminated and the absorbance value of each well was measured at a wavelength of 450 nm using an ELISA reader. The IC50 values were calculated by GraphPadPrism. CellTiter-Glo reagent was used to measure cell viability.

786-O-HIF2α-Luc cells = test: Luciferase assay (HIF2α reporter gene cells); format: cell-based; details: 18-20 h, luminescence
Protocol: The luciferase LUC gene was stably transfected into 786-0 cells (purchased from ATCC) using Lipofectamine 3000 transfection reagent (purchased from Invitrogen) to construct HIF2α reporter gene cells (786-O-HIF2α-Luc cells). The experiment was performed when 786-O-HIF2α-Luc cells were in the logarithmic growth phase, the culture medium (RPMI MEDIUM 1640, purchased from Invitrogen) was discarded, and the cells were rinsed three times with PBS; trypsin (TrypLE, purchased from Invitrogen) was added to digest the cells, and the digestion was terminated with culture medium, 10% fetal bovine serum, 1% penicillin, and streptomycin. The cells were collected by centrifugation, and washed twice with PBS to remove phenol red in the culture medium. The cells were resuspended to an appropriate concentration. The cell density and viability were measured, to ensure that the cells with a viability of at least 90% were used in the assay.
The compounds at a gradient concentration were transferred into 384 wells using Echo550 (non-contact acoustic pipetting system, purchased from Labcyte), 25 nL/well. The cells were seeded into 384-well plates, with 4500 cells/well and 25 μL of culture medium, and the final concentrations of the compounds were 10000 nM, 3333 nM, 1111 nM, 370 nM, 123 nM, 41.1 nM, 13.7 nM, 4.6 nM, 1.5 nM, and 0.5 nM, respectively. The cells were cultured for 18-20 h under conditions of 37° C. and 5% CO2. Steady-Glo™ luciferase assay system (purchased from Promega) was added to a 384-well plate, 25 μL/well. Luminescence values were detected using Envision. The inhibition rate % was calculated based on the RLU (Record Luminescence) signal value of each well, and then the IC50 values of the corresponding compounds were calculated by fitting using Graphpad 8.0.
The IC50 data of the exemplary examples are provided in Table 2, where A stands for IC50≤0.1 μM; B stands for 0.1 μM<IC50≤0.5 μM; and C stands for IC50>0.5 μM.

SMILES | IC50 (VEGFA) [nM] | IC50 (786-O-HIF2α-Luc cells; class symbols) [nM] | IC50 (786-O-HIF2α-Luc cells) [nM]
N#Cc1ccc(-n2cc(C(F)(F)F)c3c2CCC(F)C3O)cc1C(F)F (stereo not drawn) [Example 107, 2-(difluoromethyl)-4-(5-fluoro-4-hydroxyl-3-(trifluoromethyl)-4,5,6,7-tetrahydro-1H-indol-1-yl)benzonitrile] | 34 | ≤ 100 | 
CS(=O)(=NC#N)c1cn(-c2ccc(F)c(C(F)F)c2)c2c1[C@H](O)C(F)(F)CC2 (stereo partly drawn) [Example 59, N—(((S)-1-(3-(difluoromethyl)-4-fluorophenyl)-5,5-difluoro-4-hydroxyl-4,5,6,7-tetrahydro-1H-indol-3-yl)(methyl)(oxo)-16-sulfino)cyanamide] | 109 | 100 to 500 | 
O=S(=O)(c1cn(-c2ccc(F)c(C(F)F)c2)c2c1[C@H](O)CCC2)C(F)(F)F [Example 52, (R)-1-(3-(difluoromethyl)-4-fluorophenyl)-3-((trifluoromethyl)sulfonyl)-4,5,6,7-tetrahydro-1H-indol-4-ol] | 46 |  | 45
O=S(=O)(c1cn(-c2ccc(F)c(C(F)F)c2)c2c1[C@H](O)CCC2)C(F)F [Example 32, (R)-1-(3-(difluoromethyl)-4-fluorophenyl)-3-((difluoromethyl)sulfonyl)-4,5,6,7-tetrahydro-1H-indol-4-ol] | 62 | 100 to 500 | 

The next lines start with the values.

IC50 (VEGFA) [nM] | IC50 (786-O-HIF2α-Luc cells; class symbols) [nM] | IC50 (786-O-HIF2α-Luc cells) [nM] | SMILES
11 |  | 40 | O=S(=O)(c1cn(-c2ccc(F)c(C(F)(F)F)c2)c2c1[C@H](O)C(F)(F)CC2)C(F)(F)F [Example 23, (S)-5,5-difluoro-1-(4-fluoro-3-(trifluoromethyl)phenyl)-3-((trifluoromethyl)sulfonyl)-4,5,6,7-tetrahydro-1H-indol-4-ol]
41 |  | 52 | O=S(=O)(c1cn(-c2ccc(F)c(Cl)c2)c2c1[C@H](O)C(F)(F)CC2)C(F)(F)F [Example 33, (S)-1-(3-chloro-4-fluorophenyl)-5,5-difluoro-3-((trifluoromethyl)sulfonyl)-4,5,6,7-tetrahydro-1H-indol-4-ol]
10 | ≤ 100 |  | O=S(=O)(c1cn(-c2ccc(F)c(C(F)F)c2)c2c1[C@H](O)C(F)(F)CC2)C(F)(F)F [Example 12, (S)-1-(3-(difluoromethyl)-4-fluorophenyl)-5,5-difluoro-3-((trifluoromethyl)sulfonyl)-4,5,6,7-tetrahydro-1H-indol-4-ol]
11 |  | 38 | O=S(=O)(c1cn(-c2ccc(F)c(C(F)F)c2)c2c1[C@H](O)C(F)(F)CC2)C(F)F [Example 6, (S)-1-(3-(difluoromethyl)-4-fluorophenyl)-3-((difluoromethyl)sulfonyl)-5,5-difluoro-4,5,6,7-tetrahydro-1H-indol-4-ol]
27 | 100 to 500 |  | N#Cc1cc(-n2cc(S(=O)(=O)CF)c3c2CCC(F)(F)[C@H]3O)ccc1F [Example 11, (S)-5-(5,5-difluoro-3-((fluoromethyl)sulfonyl)-4-hydroxyl-4,5,6,7-tetrahydro-1H-indol-1-yl)-2-fluorobenzonitrile]
